Laboratory results from BindingDB's records for doi:10.1016/s0968-0896(98)00004-2 (Sankyo, 1998).

Target: T1, Dimer of Gag-Pol polyprotein [489-587] (Human immunodeficiency virus 1, UniProt P12497)
T1 construct: 489-587
Assay: Protease Inhibition Assay
Method: The inhibitory activities of the compounds toward HIV-1 PR were determined by sodium dodecyl sulfate-polyacrylamide gel electrophoresis (SDS-PAGE) assay. The IC50 values of active compounds were determined using the partially purified protease and the synthetic substrate Ac-Ser-Gln-AsnTyr-Pro-Ile-Val-NH2.

Question: How did the IC50 turn out when `CC(C)(C)NC(=O)[C@@H]1C[C@H](Cl)CN1C(=O)[C@@H](O)[C@H](Cc1ccccc1)NC(=O)c1ccccc1I` was run?
Answer: 0.014 µM

Question: `Cc1cccc(C)c1C(=O)N[C@@H](Cc1ccccc1)[C@H](O)C(=O)N1C[C@@H](Cl)C[C@H]1C(=O)NC(C)(C)C` was tested. Which IC50 did it give?
Answer: 0.0036 µM

Question: For `CC(C)(C)NC(=O)[C@@H]1C[C@H](Cl)CN1C(=O)[C@@H](O)[C@H](Cc1ccccc1)NC(=O)c1ccccc1N`, which IC50 is on record?
Answer: 0.039 µM

Question: `CC(C)(C)NC(=O)[C@@H]1C[C@H](Cl)CN1C(=O)[C@@H](O)[C@H](Cc1ccccc1)NC(=O)c1cccc(O)c1` was tested. Which IC50 did it give?
Answer: 0.009 µM

Question: For `CC(C)(C)NC(=O)[C@@H]1C[C@H](Cl)CN1C(=O)[C@@H](O)[C@H](Cc1ccccc1)NC(=O)c1ccccc1Cl` [2-Chlorobenzoyl-(2S,3S)-AHPBA-4(S)-Cl-Pro-NH-t-Bu], which IC50 is on record?
Answer: 0.011 µM

Question: Which IC50 does the source give for `Cc1ccccc1C(=O)N[C@@H](Cc1ccccc1)[C@H](O)C(=O)N1C[C@@H](Cl)C[C@H]1C(=O)NC(C)(C)C` [2-Methylbenzoyl-(2S,3S)-AHPBA-4(S)-Cl-Pro-NH-t-Bu] here?
Answer: 0.0051 µM

Question: For `CC(C)(C)NC(=O)[C@@H]1C[C@H](Cl)CN1C(=O)[C@@H](O)[C@H](Cc1ccccc1)NC(=O)c1cccc(F)c1` [3-Fluorobenzoyl-(2S,3S)-AHPBA-4(S)-Cl-Pro-NH-t-Bu], which IC50 is on record?
Answer: 0.02 µM

Question: For `CC(C)(C)NC(=O)[C@@H]1C[C@H](Cl)CN1C(=O)[C@@H](O)[C@H](Cc1ccccc1)NC(=O)c1ccc(O)cc1` [4-Hydroxybenzoyl-(2S,3S)-AHPBA-4(S)-Cl-Pro-NH-t-Bu], which IC50 is on record?
Answer: 0.033 µM

Question: For `COc1cccc(C(=O)N[C@@H](Cc2ccccc2)[C@H](O)C(=O)N2C[C@@H](Cl)C[C@H]2C(=O)NC(C)(C)C)c1O` [(2-Hydroxy-3-methoxy)benzoyl-(2S,3S) -AHPBA-4(S)-Cl-Pro-NH-t-Bu], which IC50 is on record?
Answer: > 1 µM

Question: How did the IC50 turn out when `CO[C@@H]1OCCC[C@@H]1OC(=O)N[C@@H](Cc1ccccc1)[C@H](O)C(=O)N1C[C@@H](Cl)C[C@H]1C(=O)NC(C)(C)C` [(2R,3S)-2-methoxyoxan-3-yl N-[(2S,3S)-4-[(2S,4S)-2-(tert-butylcarbamoyl)-4-chloropyrrolidin-1-yl]-3-hydroxy-4-oxo-1-phenylbutan-2-yl]carbamate] was run?
Answer: 0.037 µM

Question: How did the IC50 turn out when `CO[C@H]1OCC=C[C@H]1OC(=O)N[C@@H](Cc1ccccc1)[C@H](O)C(=O)N1C[C@@H](Cl)C[C@H]1C(=O)NC(C)(C)C` [(2S,3R)-2-methoxy-3,6-dihydro-2H-pyran-3-yl N-[(2S,3S)-4-[(2S,4S)-2-(tert-butylcarbamoyl)-4-chloropyrrolidin-1-yl]-3-hydroxy-4-oxo-1-phenylbutan-2-yl]carbamate] was run?
Answer: 0.035 µM

Question: For `CC(C)(C)NC(=O)[C@@H]1C[C@H](Cl)CN1C(=O)[C@@H](O)[C@H](Cc1ccccc1)NC(=O)c1cccc(O)c1Br` [(2S,4S)-1-[(2S,3S)-3-[(2-bromo-3-hydroxyphenyl)formamido]-2-hydroxy-4-phenylbutanoyl]-N-tert-butyl-4-chloropyrrolidine-2-carboxamide], which IC50 is on record?
Answer: 0.0015 µM

Question: `CC(C)(C)NC(=O)[C@@H]1C[C@H](Cl)CN1C(=O)[C@@H](O)[C@H](Cc1ccccc1)NC(=O)c1ccccc1Br` [(2S,4S)-1-[(2S,3S)-3-[(2-bromophenyl)formamido]-2-hydroxy-4-phenylbutanoyl]-N-tert-butyl-4-chloropyrrolidine-2-carboxamide] was tested. Which IC50 did it give?
Answer: 0.012 µM

Question: Which IC50 does the source give for `Cc1c(N)cccc1C(=O)N[C@@H](Cc1ccccc1)[C@H](O)C(=O)N1C[C@@H](Cl)C[C@H]1C(=O)NC(C)(C)C` [(2S,4S)-1-[(2S,3S)-3-[(3-amino-2-methylphenyl)formamido]-2-hydroxy-4-phenylbutanoyl]-N-tert-butyl-4-chloropyrrolidine-2-carboxamide] here?
Answer: 0.0054 µM

Question: With `CC(C)(C)NC(=O)[C@@H]1C[C@H](Cl)CN1C(=O)[C@@H](O)[C@H](Cc1ccccc1)NC(=O)c1cccc2ccccc12` [(2S,4S)-N-tert-butyl-4-chloro-1-[(2S,3S)-2-hydroxy-3-(naphthalen-1-ylformamido)-4-phenylbutanoyl]pyrrolidine-2-carboxamide] as the compound, how does the IC50 read?
Answer: 0.009 µM

Question: Which IC50 does the source give for `CC(C)(C)NC(=O)[C@@H]1C[C@H](Cl)CN1C(=O)[C@@H](O)[C@H](Cc1ccccc1)NC(=O)c1ccccc1O` [(2S,4S)-N-tert-butyl-4-chloro-1-[(2S,3S)-2-hydroxy-3-[(2-hydroxyphenyl)formamido]-4-phenylbutanoyl]pyrrolidine-2-carboxamide] here?
Answer: > 1 µM

Question: How did the IC50 turn out when `Cc1ccc(O)c(C)c1C(=O)N[C@@H](Cc1ccccc1)[C@H](O)C(=O)N1C[C@@H](Cl)C[C@H]1C(=O)NC(C)(C)C` [(2S,4S)-N-tert-butyl-4-chloro-1-[(2S,3S)-2-hydroxy-3-[(3-hydroxy-2,6-dimethylphenyl)formamido]-4-phenylbutanoyl]pyrrolidine-2-carboxamide] was run?
Answer: 0.0025 µM

Question: How did the IC50 turn out when `CCCc1c(O)cccc1C(=O)N[C@@H](Cc1ccccc1)[C@H](O)C(=O)N1C[C@@H](Cl)C[C@H]1C(=O)NC(C)(C)C` [(2S,4S)-N-tert-butyl-4-chloro-1-[(2S,3S)-2-hydroxy-3-[(3-hydroxy-2-propylphenyl)formamido]-4-phenylbutanoyl]pyrrolidine-2-carboxamide] was run?
Answer: 0.0016 µM

Question: How did the IC50 turn out when `CC(C)(C)NC(=O)[C@@H]1C[C@H](Cl)CN1C(=O)[C@@H](O)[C@H](Cc1ccccc1)NC(=O)c1ccccc1` [(2S,4S)-N-tert-butyl-4-chloro-1-[(2S,3S)-2-hydroxy-4-phenyl-3-(phenylformamido)butanoyl]pyrrolidine-2-carboxamide] was run?
Answer: 0.026 µM

Question: Which IC50 does the source give for `CCCc1ccccc1C(=O)N[C@@H](Cc1ccccc1)[C@H](O)C(=O)N1C[C@@H](Cl)C[C@H]1C(=O)NC(C)(C)C` [(2S,4S)-N-tert-butyl-4-chloro-1-[(2S,3S)-2-hydroxy-4-phenyl-3-[(2-propylphenyl)formamido]butanoyl]pyrrolidine-2-carboxamide] here?
Answer: 0.029 µM

Question: `CCc1c(O)cccc1C(=O)N[C@@H](Cc1ccccc1)[C@H](O)C(=O)N1C[C@@H](Cl)C[C@H]1C(=O)NC(C)(C)C` [(2S,4S)-N-tert-butyl-4-chloro-1-[(2S,3S)-3-[(2-ethyl-3-hydroxyphenyl)formamido]-2-hydroxy-4-phenylbutanoyl]pyrrolidine-2-carboxamide] was tested. Which IC50 did it give?
Answer: 0.0009 µM

Question: For `Cc1c(F)cccc1C(=O)N[C@@H](Cc1ccccc1)[C@H](O)C(=O)N1C[C@@H](Cl)C[C@H]1C(=O)NC(C)(C)C` [(3-Fluoro-2-methyl)benzoyl-(2S,3S)-AHPBA-4(S)-Cl-Pro-NH-t-Bu], which IC50 is on record?
Answer: 0.0056 µM

Question: Which IC50 does the source give for `Cc1c(O)cccc1C(=O)N[C@@H](Cc1ccccc1)[C@H](O)C(=O)N1C[C@@H](Cl)C[C@H]1C(=O)NC(C)(C)C` [(3-Hydroxy-2-methylbenzoyl)-(2(S)-hydroxy-3(S)-amino-phenylbutanoyl)-4(S)-Cl-Pro-NH-t-Bu] here?
Answer: 0.0008 µM

Question: With `CC(C)(C)NC(=O)[C@@H]1C[C@H](Cl)CN1C(=O)[C@@H](O)[C@H](Cc1ccccc1)NC(=O)O[C@@H]1CO[C@H]2[C@@H]1OC[C@H]2O` [(3R,3aR,6R,6aR)-6-hydroxy-hexahydrofuro[3,2-b]furan-3-yl N-[(2S,3S)-4-[(2S,4S)-2-(tert-butylcarbamoyl)-4-chloropyrrolidin-1-yl]-3-hydroxy-4-oxo-1-phenylbutan-2-yl]carbamate] as the compound, how does the IC50 read?
Answer: 0.025 µM

Question: With `CC(C)(C)NC(=O)[C@@H]1C[C@H](Cl)CN1C(=O)[C@@H](O)[C@H](Cc1ccccc1)NC(=O)O[C@H]1CCCOC1` [(3S)-oxan-3-yl N-[(2S,3S)-4-[(2S,4S)-2-(tert-butylcarbamoyl)-4-chloropyrrolidin-1-yl]-3-hydroxy-4-oxo-1-phenylbutan-2-yl]carbamate] as the compound, how does the IC50 read?
Answer: 0.014 µM
